The record followed here is US11053226B2, “KRAS G12C inhibitors and methods of using the same” (Amgen Inc., priority 2018, dated 2021).

Each structure is given as a SMILES string. Read-outs that look alike come from different tables or passages of the source. Bounds are passed on as bounds.

For the assay, the target named is GDP-bound KRAS protein (aa 1-169), containing both G12C and C118A amino acid substitutions (Homo sapiens (Human), UniProt P01116, C118A/G12C). The assay can be described thus: Coupled Nucleotide Exchange Assay. It counts as biochemical. Here is the method: For compounds in Table 9, the following assay conditions were employed:
Coupled Nucleotide Exchange Assay:
The assay plates were then read on a PerkinElmer EnVision Multilabel Reader, using AlphaScreen® technology, and data were analyzed using a 4-parameter logistic model to calculate IC50 values.

Where [1] appears, read: read-out: Coupled Exchange IC50 (5 min), 5 min compound pre-incubation.
Setting [2] is: read-out: Coupled Exchange IC50 (2 h), 2 h compound pre-incubation.
Setting [3] is: read-out: Coupled Exchange IC50 (20 h), 20 h compound pre-incubation.
The mark [4] stands for this setting: second Coupled Exchange column, read-out: Coupled Exchange IC50.
[5] abbreviates: first Coupled Exchange column, compound pre-incubation probably 5 min (rest of head not shown; b435 lists 5 min, 2 hours or 20 hours), read-out: Coupled Exchange IC50.
Where [6] appears, read: third Coupled Exchange column, compound pre-incubation probably 20 hours (rest of head not shown; b435 lists 5 min, 2 hours or 20 hours), read-out: Coupled Exchange IC50.

Sequence of GDP-bound KRAS protein (aa 1-169), containing both G12C and C118A amino acid substitutions (P01116 other isoform, or with tags, fused parts or gaps G12C/C118A): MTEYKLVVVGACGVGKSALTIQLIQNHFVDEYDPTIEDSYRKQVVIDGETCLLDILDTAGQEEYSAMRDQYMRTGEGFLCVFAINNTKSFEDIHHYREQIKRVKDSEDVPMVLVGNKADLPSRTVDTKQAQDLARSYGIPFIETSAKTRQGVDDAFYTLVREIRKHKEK

Turning to `C=CC(=O)N1CC(NC(=O)Cn2cc(C)c3cc(Br)ccc32)C1` [Example 194], the IC50 is, setting by setting: under setting [1], 151 µM; under setting [2], 30.1 µM; under setting [3], 2.23 µM.

For the molecule `C=CC(=O)N1CC(NC(=O)Cn2c(-c3ccccc3)cc3cc(Br)ccc32)C1` [Example 243], the IC50 reads like this: under setting [2], 18.2 µM; under setting [3], 2.82 µM.

For the molecule `C=CC(=O)N1CC(NC(=O)Cn2c(-c3ncccn3)cc3cc(Cl)ccc32)C1` [Example 196], the IC50 runs as follows: under setting [2], 45.6 µM; under setting [3], 6.09 µM.

As for `C=CC(=O)N1CC(NC(=O)Cn2c(C)c(-c3cnccc3C#N)c3cc(Cl)ccc32)C1` [Example 314], the IC50 under setting [4] came to 11.7 µM.

As to `C=CC(=O)N1CC(NC(=O)Cn2c3c(c4cc(Br)ccc42)CCCC3=O)C1` [Example 262], the IC50 is over 250 µM under setting [2] and 3.31 µM under setting [3].

Take `C=CC(=O)N1CC(NC(=O)Cn2cc(-c3ccc4ccccc4c3)c3cc(-c4ccc5ccccc5c4)cc(C)c32)C1` [Example 263]: the IC50 under setting [2] is over 250 µM and the IC50 under setting [3] was 16.3 µM.

On to `C=CC(=O)N1CC(NC(=O)Cn2cc(CC(=O)N3CC4CCC3C4)c3cc(Br)ccc32)C1` (centres unmarked) [Example 333], for which the IC50 under setting [5] came to 80.1 µM.

With `C=CC(=O)N1CC(NC(=O)Cn2cc(CC(=O)N3CCCC4(CCCN(C)C4)C3)c3cc(Br)ccc32)C1` (centres unmarked) [Example 322], the IC50 under setting [4] stood at 2.07 µM.

`C=CC(=O)N1CC(NC(=O)Cn2cc(-c3cccnc3)c3cc(Br)ccc32)C1` [Example 206]: the IC50 stood at 14.1 µM under setting [2] and 2.84 µM under setting [3].

For `C=CC(=O)N1CC(NC(=O)Cn2cc(CC(=O)N3CCC(c4ncc[nH]4)CC3)c3cc(Br)ccc32)C1` [Example 327], the IC50 under setting [5] came to 45.9 µM.

In the case of `C=CC(=O)N1CC(NC(=O)Cn2c3c(c4cc(Br)ccc42)C=NCC3)C1` [Example 238], the IC50 by setting is: under setting [2], 73.1 µM; under setting [3], 9.89 µM.

With `C=CC(=O)N1CC(NC(=O)Cn2cc(-c3ccccc3OC)c3cc(-c4ccccc4OC)ccc32)C1` [Example 209], the IC50 under setting [2] was determined as 14.1 µM and the IC50 under setting [3] came out at 3.01 µM.

With `C=CC(=O)N1CC(NC(=O)Cn2cc(-c3ccc4ccccc4c3)c3cc(Br)cc(C)c32)C1` [Example 264], the IC50 by setting is: under setting [2], 9.6 µM; under setting [3], 2.75 µM.

With `C=CC(=O)N1CC(NC(=O)Cn2ccc3cc(Cl)ccc32)C1` [Example 187], the half-maximal inhibitory concentration (IC50) reads like this: under setting [1], over 250 µM; under setting [2], over 250 µM; under setting [3], 7.27 µM.

With `C=CC(=O)N1CC(NC(=O)Cn2cc(-c3cccnc3)c3cc(-c4cccnc4)ccc32)C1` [Example 207], the IC50 by setting is: under setting [2], 164 µM; under setting [3], 18.2 µM.

Consider `C=CC(=O)N1CC(NC(=O)Cn2c3c(c4cc(Br)ccc42)CCN(C(=O)OCc2ccccc2)C3)C1` [Example 227], for which the IC50 reads like this: under setting [2], 12.3 µM; under setting [3], 2.61 µM.

Consider `C=C(CCO)C(=O)N1CC(NC(=O)Cn2c(C)c(C(=O)N3CCc4c(cccc4OC)C3)c3cc(Br)ccc32)C1` [Example 313], for which, under setting [4], the IC50 was over 250 µM.

As to `C=CC(=O)N1CC(NC(=O)Cn2cc(-c3ccc(F)cc3F)c3cc(-c4ccc(F)cc4F)ccc32)C1` [Example 210], the IC50 was over 250 µM under setting [2] and 10.9 µM under setting [3].

In the case of `C=CC(=O)N1CC(NC(=O)Cn2c3c(c4cc(Br)ccc42)CNCC3)C1` [Example 249], the IC50 runs as follows: under setting [2], 54.6 µM; under setting [3], 21.7 µM.

Consider `C=CC(=O)N1CC(NC(=O)Cn2ccc3cc(OC)ccc32)C1` [Example 236], for which the IC50 was over 250 µM under setting [2] and over 250 µM under setting [3].

Consider `C=CC(=O)N1CC(NC(=O)Cn2cc(-c3cnn(C)c3)c3cc(Cl)ccc32)C1` [Example 197], for which the IC50 is, setting by setting: under setting [2], 24.5 µM; under setting [3], 5.51 µM.

For `C=CC(=O)N1CC(n2nncc2Cn2ccc3cc(Br)ccc32)C1` [Example 359], the IC50 reads like this: under setting [5], over 250 µM; under setting [6], 7.66 µM.

Take `C=CC(=O)N1CC(NC(=O)Cn2c(C)c(-c3cnccc3C(C)C)c3cc(Cl)cc(C)c32)C1` [Example 325]: the IC50 under setting [5] was 1.55 µM.

On to `C=CC(=O)N1CC(NC(=O)Cn2c(C)c(-c3cnccc3C3=CCOCC3)c3cc(Cl)cc(C)c32)C1` [Example 341], for which the IC50 under setting [5] was determined as 2.44 µM.

As for `C=CC(=O)N1CC(NC(=O)Cn2cc(CC(=O)N3CCc4cn[nH]c4C3)c3cc(Br)ccc32)C1` [Example 332], the IC50 under setting [5] was 43.3 µM.

On to `C=CC(=O)N1CC(NC(=O)Cn2ccc3cc(Br)cc(C)c32)C1` [Example 190], for which the IC50 is, setting by setting: under setting [1], 193 µM; under setting [2], 16 µM; under setting [3], 1.76 µM.

In the case of `C=CC(=O)N1CC(NC(=O)Cn2cc([N+](=O)[O-])c3cc(Cl)ccc32)C1` [Example 240], the IC50 reads like this: under setting [2], 13.1 µM; under setting [3], 1.33 µM.

Turning to `C=CC(=O)N1CC(NC(=O)Cn2ccc3cccc(Cl)c32)C1` [Example 203], the IC50 runs as follows: under setting [2], over 250 µM; under setting [3], over 250 µM.

As to `C=CC(=O)N1CC(NC(=O)Cn2ccc3cc(C(F)(F)F)ccc32)C1` [Example 235], the IC50 is over 250 µM under setting [2] and 5.45 µM under setting [3].

Consider `C=CC(=O)N1CC(NC(=O)Cn2cc(-c3cccc(C(C)C)c3)c3cc(Br)cc(C)c32)C1` [Example 268], for which the IC50 runs as follows: under setting [2], 6.81 µM; under setting [3], 1.62 µM.

Consider `C=CC(=O)N1CC(NC(=O)Cn2ccc3cccc(CC#N)c32)C1` [Example 360], for which the IC50 under setting [5] was over 250 µM and the IC50 under setting [6] is over 250 µM.

Consider `C=CC(=O)N1C[C@H](N(C)C(=O)Cn2ccc3cc(Br)ccc32)[C@@H]1C` [Example 364], for which the IC50 was over 250 µM under setting [5] and 8.14 µM under setting [6].

As for `C=CC(=O)N1CC(NC(=O)Cn2ccc3cc(-c4ccccc4)ccc32)C1` [Example 237], the IC50 is, setting by setting: under setting [2], over 250 µM; under setting [3], over 250 µM.

Turning to `C=CC(=O)N1CC(NC(=O)Cn2cc(CC#N)c3cc(Br)ccc32)C1` [Example 214], the IC50 under setting [2] came out at 33.8 µM and the IC50 under setting [3] is 4.48 µM.

Regarding `C=CC(=O)N1CC(NC(=O)Cn2c(C)c(-c3cccnc3OCC(C)C)c3cc(Cl)cc(C)c32)C1` [Example 345], under setting [5], the IC50 came to 4.43 µM.

`C=CC(=O)N1CC(N(C)C(=O)Cn2ccc3cc(Br)cc(C)c32)C1` [Example 351]: the IC50 was over 250 µM under setting [5] and 3.32 µM under setting [6].

In the case of `C=CC(=O)N1CC(NC(=O)Cn2c3c(c4cc(Br)ccc42)CCN(C(C)=O)C3)C1` [Example 252], the IC50 was determined as 19.4 µM under setting [2] and 2.49 µM under setting [3].

As for `C=CC(=O)N1CC(N(C)C(=O)Cn2c3ccccc3c3cc(Br)ccc32)C1` [Example 261], the IC50 under setting [2] is 15.4 µM and the half-inhibitory concentration (IC50) under setting [3] was 2.17 µM.

As for `C=CC(=O)N1CC(NC(=O)Cn2ccc3cc(I)ccc32)C1` [Example 188], the IC50 by setting is: under setting [2], 22.2 µM; under setting [3], 3.71 µM.

On to `C=CC(=O)N1CC(NC(=O)Cn2c(C)c(-c3c(OC)cccc3OC)c3cc(Cl)cc(C)c32)C1` [Example 343], for which the concentration for half-maximal inhibition (IC50) under setting [5] was determined as 13.6 µM.

In the case of `C=CC(=O)N1CC(NC(=O)Cn2c(C)c(-c3nccnc3Cl)c3cc(Cl)ccc32)C1` [Example 281], the IC50 stood at 13.6 µM under setting [4] and 2.32 µM under setting [6].

Regarding `C=CC(=O)N1CC(NC(=O)Cn2cc(CC(=O)NCc3ccccc3)c3cc(Br)ccc32)C1` [Example 226], the IC50 runs as follows: under setting [2], 8.23 µM; under setting [3], 1.66 µM.

As for `C=CC(=O)N1CC(NC(=O)Cn2ccc3cc(Br)ccc32)C1C` (centres unmarked) [Example 361], the IC50 is, setting by setting: under setting [5], 231 µM; under setting [6], 3.04 µM.

Take `C=CC(=O)N1CC(NC(=O)Cn2ccc3cc(Cl)c(Cl)cc32)C1` [Example 258]: the IC50 under setting [2] was found to be 104 µM and the IC50 under setting [3] amounted to 5.22 µM.

Take `C=CC(=O)N1CC(NC(=O)Cn2c3ccc(Br)cc3c3ccc(Oc4ccc(F)cc4)nc32)C1` [Example 234]: the IC50 was over 250 µM under setting [2] and 0.32 µM under setting [3].

For the molecule `C=CC(=O)N1CC(NC(=O)Cn2cc(C#N)c3cc(Br)ccc32)C1` [Example 211], the IC50 was 22.9 µM under setting [2] and 5.2 µM under setting [3].

Turning to `C=CC(=O)N1CC(NC(=O)Cn2ccc3c(F)c(Br)ccc32)C1` [Example 255], the IC50 runs as follows: under setting [2], over 250 µM; under setting [3], 4.89 µM.

Turning to `C=CC(=O)N1CC(NC(=O)Cn2cc(-c3cccc(-c4ccccc4)c3)c3cc(Br)cc(C)c32)C1` [Example 265], the IC50 by setting is: under setting [2], over 250 µM; under setting [3], 3.24 µM.

Consider `C=CC(=O)N1CC(N(C)C(=O)Cn2ccc3cc(Br)c(C)cc32)C1` [Example 357], for which the IC50 under setting [5] is over 250 µM and the IC50 under setting [6] is 6.78 µM.

For `C=CC(=O)N1CC(NC(=O)Cn2cc(C(C)(O)C(=O)NCc3ccccc3)c3cc(Br)ccc32)C1` (centres unmarked) [Example 253], the IC50 runs as follows: under setting [2], 19.4 µM; under setting [3], 2.31 µM.

`C=CC(=O)N1CC(NC(=O)Cn2cc(CC(=O)N3CCC4(CCOCC4)C3)c3cc(Br)ccc32)C1` [Example 328]: the IC50 under setting [5] is 31 µM.

`C=CC(=O)N1CC(NC(=O)Cn2c(C)c(-c3ccccc3C(C)(C)C)c3cc(Cl)ccc32)C1` [Example 318]: the IC50 under setting [5] is 16.2 µM and the half-maximal inhibitory concentration (IC50) under setting [4] stood at 98.9 µM.

As for `C=CC(=O)N1CC(NC(=O)Cn2cc(C(=O)C(=O)OCC)c3ccccc32)C1` [Example 200], the IC50 under setting [2] is over 250 µM and the IC50 under setting [3] is over 250 µM.

Turning to `C=CC(=O)N1CC(N(C)C(=O)Cn2ccc3cc(Cl)ccc32)C1` [Example 358], the IC50 is, setting by setting: under setting [5], over 250 µM; under setting [6], 3.2 µM.

`C=CC(=O)N1CC(NC(=O)Cn2c(C(=O)NCc3ccccc3)c(I)c3cc(Br)ccc32)C1` [Example 192]: the IC50 runs as follows: under setting [2], 107 µM; under setting [3], 61.7 µM.

In the case of `C=CC(=O)N1CC(NC(=O)Cn2c(C)cc3cc(Br)ccc32)C1` [Example 347], the IC50 under setting [5] was over 250 µM and the IC50 under setting [6] was 1.47 µM.
